Values quoted from earlier work as cited in EP4640075A1, “ORAL POUCHED PRODUCT WITH SELF-EMULSIFYING DELIVERY SYSTEM” (Nicoventures Trading Limited, priority 2024, dated 2025).

Conditions: Values obtained from PubChem or calculated

## tocopherol succinate
  log(P)*: 10.2
